Measured values published in ChEMBL document CHEMBL1142884, “Inhibition of horseradish peroxidase catalytic activity by new 3-phenylcoumarin derivatives: synthesis and structure-activity relationships” (Bioorg Med Chem, 2007).

Columns and labels:
[1] = DPPH radical scavenging activity; format: functional
[2] = Inhibition of horseradish peroxidase catalytic activity by luminol-enhanced chemiluminescence assay; set-up: species or system Armoracia rusticana

SMILES	IC50 [1] [µM]	IC50 [2] [µM]
O=c1oc2ccc(O)cc2cc1-c1ccccc1O	24.9	24.6
O=c1oc2ccc(O)cc2cc1-c1ccc(O)c(O)c1	26.8	2.8
O=c1oc2cc(O)c(O)cc2cc1-c1ccc(O)c(O)c1	9.8	1.2
O=c1oc2cc(O)c(O)cc2cc1-c1ccc2c(c1)OCO2	13.2	3.4
CC(=O)Oc1ccc(-c2cc3cc(OC(C)=O)c(OC(C)=O)cc3oc2=O)cc1OC(C)=O		28.2
